From patent US6362369B1, “Phthalic acid diamide derivatives fluorine-containing aniline compounds as starting material, agricultural and horticultural insecticides, and a method for application of the insecticides” (Nihon Nohyaku Co., Ltd., priority 1997, dated 2002)

How the values were obtained:
[1] = test system: diamondback moth (Plutella xylostella); test: Insecticidal effect on diamondback moth (Test Example 1); assay type: in vivo; conditions: for Insecticidal effect, Test Example 1 / Insecticidal effect (Test Example 1), judged from mortality: diamondback moth; for Insecticidal effect (Test Example 1), judged from mortality: judged by the criterion of Test Example 1; for Insecticidal effect on diamondback moth (Test Example 1), judged grade: mortality judged according to the criterion shown in Test Example 1
Summary of the method: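 Chinese cabbage seedlings carrying eggs laid by released adult moths were immersed in treatment, air-dried and held at 25° C. Hatched insects were counted six days after immersion, and mortality was calculated and scored against a fixed criterion. Three replicate groups of 10 insects were used.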

[2] = test system: rice leafroller (Cnaphalocrocis medinalis); test: Insecticidal effect on rice leafroller (Test Example 3); assay type: in vivo; conditions: 500 ppm, 25° C., humidity 70%; for Insecticidal effect, Test Example 3: rice lamina immersed; for Insecticidal effect, Test Example 3 / Insecticidal effect on rice leafroller (Test Example 3), judged grade: four days after inoculation; for Insecticidal effect (Test Example 3), judged from mortality / Insecticidal effect on rice leafroller (Test Example 3), judged grade: rice lamina dip; for Insecticidal effect (Test Example 3), judged from mortality: 4 days after inoculation; for Insecticidal effect on rice leafroller (Test Example 3), judged grade: third-instar larvae
Summary of the method: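 Groups of 10 third-instar larvae, in triplicate, are placed on air-dried lamina resting on wet filter paper. Incubation runs four days at 25° C with 70% humidity before survivors and dead are tallied.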

[3] = mortality judged by criterion of Test Example 1
[4] = rice leafroller third-instar larvae
[5] = third-instar larvae of rice leafroller
[6] = judged by the mortality criterion of Test Example 1

## Cc1cc(C(F)(F)C(F)(F)F)ccc1NC(=O)c1cccc(Cl)c1C(=O)NCCCc1ccccc1 [compound 1331]
[1]; [3]
  Insecticidal effect, Test Example 1: A (100)
[2]; [4]
  Insecticidal effect, Test Example 3: A (100)

## CCC(C)NC(=O)c1cccc(I)c1C(=O)Nc1ccc(C(F)(F)C(F)(F)F)cc1C (centres unmarked) [compound 1008]
[1]; [3]
  Insecticidal effect, Test Example 1: A (100)
[2]; [4]
  Insecticidal effect, Test Example 3: A (100)

## CCN(CC)C(=O)c1c(C(=O)Nc2ccc(OC(F)(F)C(F)F)cc2C)cccc1[N+](=O)[O-] [compound 1132]
[1]; [3]
  Insecticidal effect, Test Example 1: A (100)
[2]; [4]
  Insecticidal effect, Test Example 3: A (100)

## CC(C)NC(=O)c1c(I)cccc1C(=O)Nc1cccc2c1OC(F)(F)O2 [compound 1742]
[1]
  Insecticidal effect (Test Example 1), judged from mortality: A (100)
[2]; [5]
  Insecticidal effect (Test Example 3), judged from mortality: A (100)

## Cc1ccccc1CNC(=O)c1c(Cl)cccc1C(=O)Nc1ccc(C(F)(F)C(F)(F)F)cc1C [compound 1337]
[1]; [3]
  Insecticidal effect, Test Example 1: A (100)
[2]; [4]
  Insecticidal effect, Test Example 3: A (100)

## Cc1cc(OC(F)F)ccc1NC(=O)c1cccc([S+](C)[O-])c1C(=O)NC(C)C (centres unmarked) [compound 791]
[1]
  Insecticidal effect on diamondback moth (Test Example 1), judged grade: A (100)
[2]
  Insecticidal effect on rice leafroller (Test Example 3), judged grade: A (100)

## Cc1cc(C(F)(F)C(F)(F)F)ccc1NC(=O)c1c(Cl)cccc1C(=O)NCc1ccc(Cl)c(Cl)c1 [compound 1352]
[1]; [3]
  Insecticidal effect, Test Example 1: A (100)
[2]; [4]
  Insecticidal effect, Test Example 3: A (100)

## Cc1cc(OC(F)(F)C(F)(F)c2ccccc2)ccc1NC(=O)c1cccc([N+](=O)[O-])c1C(=O)NC(C)C [compound 1089]
[1]; [3]
  Insecticidal effect, Test Example 1: A (100)
[2]; [4]
  Insecticidal effect, Test Example 3: A (100)

## Cc1cc(OC(F)F)ccc1NC(=O)c1cc(I)ccc1C(=O)NC(C)C [compound 1205]
[1]; [3]
  Insecticidal effect, Test Example 1: A (100)
[2]; [4]
  Insecticidal effect, Test Example 3: A (100)

## CC(C)NC(=O)c1c(I)cccc1C(=O)Nc1cc(Cl)c(OC(F)F)c(Cl)c1 [compound 383]
[1]; [6]
  Insecticidal effect, Test Example 1: A (100)
[2]; [5]
  Insecticidal effect, Test Example 3: A (100)

## CC(C)NC(=O)c1ccccc1C(=O)Nc1ccc2c(c1)OC(F)(F)C(F)(F)O2 [compound 975]
[1]; [3]
  Insecticidal effect, Test Example 1: A (100)
[2]; [4]
  Insecticidal effect, Test Example 3: A (100)

## Cc1cc(OC(F)(F)F)ccc1NC(=O)c1c(I)cccc1C(=O)NC(C)(C)C [compound 958]
[1]; [3]
  Insecticidal effect, Test Example 1: A (100)
[2]; [4]
  Insecticidal effect, Test Example 3: A (100)

## CC(C)NC(=O)c1cccc(Br)c1C(=O)Nc1ccc(OC(F)(F)F)cc1 [Compound No. 302, 6-bromo-N^1-(4-trifluoromethoxyphenyl)-N^2-isopropylphthalic acid diamide]
[1]; [6]
  Insecticidal effect, Test Example 1: A (100)
[2]; [5]
  Insecticidal effect, Test Example 3: D (79-50)

## Cc1cc(OC(F)(F)C(F)(F)Br)ccc1NC(=O)c1c(F)cccc1C(=O)NC(C)C [compound 554]
[1]
  Insecticidal effect on diamondback moth (Test Example 1), judged grade: A (100)
[2]
  Insecticidal effect on rice leafroller (Test Example 3), judged grade: A (100)

## CC(C)NC(=O)c1ccc(Cl)cc1C(=O)Nc1ccc(Cl)cc1Cl [compound 187]
[1]; [6]
  Insecticidal effect, Test Example 1: A (100)
[2]; [5]
  Insecticidal effect, Test Example 3: D (79-50)

## CC(C)NC(=O)c1cccc(F)c1C(=O)Nc1ccc(OC(F)(F)F)cc1Cl [compound 562]
[1]
  Insecticidal effect on diamondback moth (Test Example 1), judged grade: A (100)
[2]
  Insecticidal effect on rice leafroller (Test Example 3), judged grade: A (100)

## CC(C)NC(=O)c1cccc(F)c1C(=O)Nc1ccc(C(F)(F)C(F)(F)F)cc1Cl [compound 1517]
[1]
  Insecticidal effect (Test Example 1), judged from mortality: A (100)
[2]; [5]
  Insecticidal effect (Test Example 3), judged from mortality: A (100)

## COc1ccc(NC(=O)c2cccc([N+](=O)[O-])c2C(=O)NC(C)C)c(C)c1 [compound 688]
[1]
  Insecticidal effect on diamondback moth (Test Example 1), judged grade: A (100)
[2]
  Insecticidal effect on rice leafroller (Test Example 3), judged grade: A (100)

## Cc1cc(OC(F)(F)F)ccc1NC(=O)c1cccc(I)c1C(=O)NC(C)(C)CO [compound 1519]
[1]
  Insecticidal effect (Test Example 1), judged from mortality: A (100)
[2]; [5]
  Insecticidal effect (Test Example 3), judged from mortality: A (100)

## Cc1cc(Oc2ccc(C(F)(F)F)cn2)ccc1NC(=O)c1c(F)cccc1C(=O)NC(C)C [compound 576]
[1]
  Insecticidal effect on diamondback moth (Test Example 1), judged grade: A (100)
[2]
  Insecticidal effect on rice leafroller (Test Example 3), judged grade: C (89-80)

## C=CCON=C(C)c1ccc(NC(=O)c2cccc(I)c2C(=O)NC(C)C)cc1 [compound 1750]
[1]
  Insecticidal effect (Test Example 1), judged from mortality: A (100)
[2]; [5]
  Insecticidal effect (Test Example 3), judged from mortality: A (100)

## COc1cccc(C(=O)NC(C)C)c1C(=O)Nc1ccc(OC(F)(F)F)cc1 [compound 769]
[1]
  Insecticidal effect on diamondback moth (Test Example 1), judged grade: A (100)
[2]
  Insecticidal effect on rice leafroller (Test Example 3), judged grade: D (79-50)

## CC(C)NC(=O)c1c(I)cccc1C(=O)Nc1cccc(C(F)(F)F)c1 [compound 348]
[1]; [6]
  Insecticidal effect, Test Example 1: A (100)
[2]; [5]
  Insecticidal effect, Test Example 3: A (100)

## CC(C)NC(=O)c1c(I)cccc1C(=O)Nc1ccc(C(F)(C(F)(F)F)C(F)(F)F)cc1Oc1ccccc1 [compound 1768]
[1]
  Insecticidal effect (Test Example 1), judged from mortality: A (100)
[2]; [5]
  Insecticidal effect (Test Example 3), judged from mortality: A (100)

## CC(C)NC(=O)c1c(C(=O)Nc2ccc(SC(F)(F)Br)cc2)cccc1[N+](=O)[O-] [compound 1108]
[1]; [3]
  Insecticidal effect, Test Example 1: A (100)
[2]; [4]
  Insecticidal effect, Test Example 3: A (100)

## Cc1cc(Cl)ccc1NC(=O)c1c(Br)ccc(Br)c1C(=O)NC(C)C [compound 341]
[1]; [6]
  Insecticidal effect, Test Example 1: A (100)
[2]; [5]
  Insecticidal effect, Test Example 3: A (100)

## Cc1cc(Cl)ccc1NC(=O)c1ccccc1C(=O)N(C)C(C)C [compound 826]
[1]
  Insecticidal effect on diamondback moth (Test Example 1), judged grade: A (100)
[2]
  Insecticidal effect on rice leafroller (Test Example 3), judged grade: A (100)

## CC(C)NC(=O)c1c(I)cccc1C(=O)Nc1ccc(C(F)(C(F)(F)F)C(F)(F)F)c2c1CCCC2 [compound 1726]
[1]
  Insecticidal effect (Test Example 1), judged from mortality: A (100)
[2]; [5]
  Insecticidal effect (Test Example 3), judged from mortality: A (100)

## CNC(=O)c1c(C(=O)Nc2ccc(OC(F)F)cc2C)cccc1[N+](=O)[O-] [compound 4]
[1]; [6]
  Insecticidal effect, Test Example 1: A (100)
[2]; [5]
  Insecticidal effect, Test Example 3: D (79-50)

## CC(C)NC(=O)c1cccc(Br)c1C(=O)Nc1ccc2c(c1)OCO2 [compound 337]
[1]; [6]
  Insecticidal effect, Test Example 1: A (100)
[2]; [5]
  Insecticidal effect, Test Example 3: A (100)

## Cc1cc(Cl)ccc1NC(=O)c1cccc(C)c1C(=O)NC(C)C [compound 750]
[1]
  Insecticidal effect on diamondback moth (Test Example 1), judged grade: A (100)
[2]
  Insecticidal effect on rice leafroller (Test Example 3), judged grade: A (100)

## CCCNC(=O)c1c(Cl)cccc1C(=O)Nc1ccc(C(F)(F)C(F)(F)F)cc1Cl [compound 1492]
[1]
  Insecticidal effect (Test Example 1), judged from mortality: A (100)
[2]; [5]
  Insecticidal effect (Test Example 3), judged from mortality: A (100)

## Cc1cc(C(F)(F)F)ccc1NC(=O)c1cccc([N+](=O)[O-])c1C(=O)NC(C)C [compound 682]
[1]
  Insecticidal effect on diamondback moth (Test Example 1), judged grade: A (100)
[2]
  Insecticidal effect on rice leafroller (Test Example 3), judged grade: A (100)

## Cc1cc(OC(C)C)ccc1NC(=O)c1cccc([N+](=O)[O-])c1C(=O)NC(C)C [compound 690]
[1]
  Insecticidal effect on diamondback moth (Test Example 1), judged grade: A (100)
[2]
  Insecticidal effect on rice leafroller (Test Example 3), judged grade: A (100)

## Cc1cc(OC(F)F)ccc1NC(=O)c1cccc([N+](=O)[O-])c1C(=O)NC1CCCC1 [compound 856]
[1]
  Insecticidal effect on diamondback moth (Test Example 1), judged grade: A (100)
[2]
  Insecticidal effect on rice leafroller (Test Example 3), judged grade: D (79-50)

## Cc1cc(OC(F)(F)C(F)F)ccc1NC(=O)c1c(F)cccc1C(=O)NC(C)C [compound 566]
[1]
  Insecticidal effect on diamondback moth (Test Example 1), judged grade: A (100)
[2]
  Insecticidal effect on rice leafroller (Test Example 3), judged grade: B (99-90)

## Cc1nc(-c2cccc(NC(=O)c3cccc(I)c3C(=O)NC(C)C)c2)co1 [compound 1659]
[1]
  Insecticidal effect (Test Example 1), judged from mortality: A (100)
[2]; [5]
  Insecticidal effect (Test Example 3), judged from mortality: A (100)

## COc1ccc(NC(=O)c2c(Cl)cccc2C(=O)NC(C)C)c(C)c1 [compound 218]
[1]; [6]
  Insecticidal effect, Test Example 1: A (100)
[2]; [5]
  Insecticidal effect, Test Example 3: C (89-80)

## Cc1ccc(NC(=O)c2cccc([N+](=O)[O-])c2C(=O)NC(C)C)c(Cl)c1 [compound 656]
[1]
  Insecticidal effect on diamondback moth (Test Example 1), judged grade: A (100)
[2]
  Insecticidal effect on rice leafroller (Test Example 3), judged grade: A (100)

## COCCNC(=O)c1cccc(I)c1C(=O)Nc1ccc(C(F)(F)C(F)(F)F)cc1C [compound 982]
[1]; [3]
  Insecticidal effect, Test Example 1: A (100)
[2]; [4]
  Insecticidal effect, Test Example 3: C (89-80)

## CCN(CC)C(=O)c1c(I)cccc1C(=O)Nc1ccc(OC(F)F)cc1C [compound 1555]
[1]
  Insecticidal effect (Test Example 1), judged from mortality: A (100)
[2]; [5]
  Insecticidal effect (Test Example 3), judged from mortality: A (100)

## CCCNC(=O)c1cccc(I)c1C(=O)Nc1ccc(C(F)(C(F)(F)F)C(F)(F)F)cc1C [compound 1076]
[1]; [3]
  Insecticidal effect, Test Example 1: A (100)
[2]; [4]
  Insecticidal effect, Test Example 3: A (100)

## Cc1ccccc1NC(=O)c1ccccc1C(=O)NC(C)C [compound 24]
[1]; [6]
  Insecticidal effect, Test Example 1: A (100)
[2]; [5]
  Insecticidal effect, Test Example 3: D (79-50)

## COCC(C)NC(=O)c1cccc(I)c1C(=O)Nc1ccc(C(F)(F)C(F)(F)F)cc1C (centres unmarked) [compound 1032]
[1]; [3]
  Insecticidal effect, Test Example 1: A (100)
[2]; [4]
  Insecticidal effect, Test Example 3: A (100)

## Cc1cccc(Cl)c1NC(=O)c1cccc([N+](=O)[O-])c1C(=O)NC(C)C [compound 666]
[1]
  Insecticidal effect on diamondback moth (Test Example 1), judged grade: A (100)
[2]
  Insecticidal effect on rice leafroller (Test Example 3), judged grade: D (79-50)

## COc1c(C)ccc(NC(=O)c2cccc([N+](=O)[O-])c2C(=O)NC(C)C)c1C [compound 694]
[1]
  Insecticidal effect on diamondback moth (Test Example 1), judged grade: A (100)
[2]
  Insecticidal effect on rice leafroller (Test Example 3), judged grade: A (100)
